Experimental findings from the Deep4Chem optical property database are described below.

This data set in a line: photoluminescence quantum yield (fraction); solvent given as SMILES.

In the case of `O=P1(c2ccccc2)C(c2cc(C(F)(F)F)cc(C(F)(F)F)c2)=Cc2c3ccc4cccc5ccc(c6cc(-c7ccc(N(c8ccccc8)c8ccccc8)cc7)n1c26)c3c45` (configuration not stated), the photoluminescence quantum yield by setting is: (in C1CCCCC1) 0.44; (in C1CCOC1) 0.17; (in C1COCCO1) 0.48; (in CC#N) 0.004; (in CC(C)=O) 0.11; (in CO) 0.004. Moreover, the photoluminescence quantum yield by setting is: (in Cc1ccccc1) 0.49; (in ClC(Cl)Cl) 0.49; (in ClCCl) 0.23.

Turning to `CN(C)c1ccc2c(c1)Cc1ccccc1-2`, the photoluminescence quantum yield is 0.39 (in C1CCOC1); 0.38 (in C1COCCO1); 0.4 (in CC(=O)N(C)C); 0.25 (in CCCCCC); 0.22 (in CCCCCCO); 0.19 (in CCCCCO). Further, the photoluminescence quantum yield by setting is: (in CCCCO) 0.19; (in CCCO) 0.21; (in CCO) 0.2; (in CCOC(C)=O) 0.4; (in CCOCC) 0.31; (in CO) 0.2. The photoluminescence quantum yield runs as follows: (in CS(C)=O) 0.42; (in O) 0.12; (in OC1CCCCC1) 0.22.

Under “in CS(C)=O”, `CCN1/C(=C/C=C/C2=[N+](C)c3ccccc3C2(C)C)C(C)(C)c2ccccc21` yielded a photoluminescence quantum yield of 0.07.

On to `CC[N+](CC)=c1ccc2c(C(F)(F)F)c3oc4cc(N)ccc4c3oc-2c1`, for which the photoluminescence quantum yield runs as follows: (in CCO) 0.064; (in ClCCl) 0.157; (in O) 0.014.

As for `CCCCCCOc1cc(/C=C/c2cc(OCCCCCC)c(/C=C/c3cc(OCCCCCC)c(C=C(C#N)C#N)cc3OCCCCCC)cc2OCCCCCC)c(OCCCCCC)cc1C=C(C#N)C#N`, where the note is “in ClCCl”, the photoluminescence quantum yield was determined as 0.13.

For the compound `COc1ccc(-c2c3cc4ccccc4cc3c(-c3ccc(OC)cc3)c3cc4ccccc4cc23)cc1`, the photoluminescence quantum yield (in ClCCl) came out at 0.09.

As to `C=CC1CN2CCC1CC2[C@H](O)c1ccnc2ccc(OC)cc12` (some centres not stated), the photoluminescence quantum yield (in O) was determined as 0.546.

As for `CCCCN1C(=O)c2ccc3c4ccc5c6c(cc(-c7ccc(C(=C(c8ccccc8)c8ccccc8)c8ccccc8)cc7)c(c7ccc(c2c37)C1=O)c64)C(=O)N(CCCC)C5=O`, the photoluminescence quantum yield (in ClCCl) amounted to 0.022.

On to `CCCCCCc1ccsc1-c1ccc2c(c1)C1=[N+]3C2=Cc2c4ccc(-c5sccc5CCCCCC)cc4c4n2[B-]3(Oc2ccccc21)Oc1ccccc1-4` (configuration not stated), for which, where the note is “in C1CCOC1”, the photoluminescence quantum yield came to 0.

Take `CCCCCCCCC1(CCCCCCCC)c2cc(-c3ccc(C(=O)OC)cc3)ccc2-c2ccc(-c3ccc(C(=O)OC)cc3)cc21`: the photoluminescence quantum yield (in ClC(Cl)Cl) worked out at 0.94.

In the case of `CC(=O)c1ccc(-c2cnc3nn4ccccc4c3n2)cc1`, the photoluminescence quantum yield (in C1CCOC1) was 0.5.

Take `Cc1cc(C)c(B(c2ccc(-c3nc4c5ccccc5c5ccccc5c4[nH]3)cc2)c2c(C)cc(C)cc2C)c(C)c1`: the photoluminescence quantum yield runs as follows: (in C1CCOC1) 0.79; (in CC(C)=O) 0.71; (in CS(C)=O) 0.76; (in Cc1ccccc1) 0.92; (in ClCCl) 0.8.

Turning to `CC(=O)O[B-]1(OC(C)=O)OC(/C=C/c2ccc(C)cc2)=CC(/C=C/c2ccc(C)cc2)=[O+]1`, the photoluminescence quantum yield is 0.75 (in C1CCOC1); 0.55 (in CC#N); 0.58 (in CC(C)=O); 0.51 (in CS(C)=O); 0.88 (in Cc1ccccc1); 0.63 (in ClC(Cl)Cl). Besides, the photoluminescence quantum yield (in ClCCl) was found to be 0.56.

`COCCC1=Cc2nc1ccc1[nH]c(cc1CCOC)c1nc(c(N3C(=O)CCCC3=O)cc3[nH]c2cc3CCOC)C(CCOC)=C1`: the photoluminescence quantum yield (in Cc1ccccc1) turned out to be 0.36.

On to `O=P1(c2ccccc2)C(c2ccc(N(c3ccccc3)c3ccccc3)cc2)=Cc2ccccc21` (configuration not stated), for which, under “in ClCCl”, the photoluminescence quantum yield is 0.81.

On to `O=C1C(=c2c(=O)c3c4ccccc4cc4cc5ccccc5c2c43)C(=O)c2ccccc21`, for which the photoluminescence quantum yield stood at 0.235 (in C1CCOC1); 0.09 (in CC#N); 0.292 (in CCCCCC); 0.268 (in Cc1ccccc1); 0.193 (in ClCCl).

`CC(C)(C)c1ccc2c(c1)sc1[n+]2[B-](F)(F)n2c(c3cccc4c(Br)ccc2c43)=N1` had a photoluminescence quantum yield (in C1CCOC1) of 0.63; a photoluminescence quantum yield (in CC#N) of 0.64; a photoluminescence quantum yield (in CCCCCC) of 0.68; a photoluminescence quantum yield (in Cc1ccccc1) of 0.64; a photoluminescence quantum yield (in ClCCl) of 0.72.

On to `c1ccc2c(c1)ccc1ccc3ccc4ccc5ccccc5c4c3c12`, for which, for the setting “in ClCCl”, the photoluminescence quantum yield turned out to be 0.02.

Regarding `Cn1cc(/C=C/C(=O)c2ccccc2)c2ccccc21`, the photoluminescence quantum yield (in C1CCOC1) was found to be 0.1; the photoluminescence quantum yield (in C1COCCO1) is 0.114; the photoluminescence quantum yield (in CC#N) worked out at 0.343; the photoluminescence quantum yield (in CC(C)=O) was determined as 0.329; the photoluminescence quantum yield (in CC(C)O) worked out at 0.231; the photoluminescence quantum yield (in CCC(=O)CC) was determined as 0.209. Further, the photoluminescence quantum yield came out at 0.217 (in CCCC#N); 0.22 (in CCCC(C)=O); 0.345 (in CCCCCCCCO); 0.428 (in CCCCCCO); 0.333 (in CCCCO); 0.5 (in CCCO). The photoluminescence quantum yield reads like this: (in CCO) 0.173; (in CN(C)C=O) 0.245; (in CO) 0.162; (in CS(C)=O) 0.62; (in ClC(Cl)Cl) 0.14; (in ClCCl) 0.394. In addition, the photoluminescence quantum yield worked out at 0.277 (in NC=O), 0.12 (in O) and 0.778 (in OC1CCCCC1).

`CCCCN1C(=O)c2cc(Oc3ccc(C(C)(C)C)cc3)c3c4c(Oc5ccc(C(C)(C)C)cc5)cc5c(=O)n6c(c7cc(Oc8ccc(C(C)(C)C)cc8)c(c8c(Oc9ccc(C(C)(C)C)cc9)cc(c2c38)C1=O)c4c57)=Cc1cccc[n+]1[B-]6(F)F`: the photoluminescence quantum yield (in C1CCOC1) was determined as 0.564, the photoluminescence quantum yield (in Cc1ccccc1) came out at 0.451 and the photoluminescence quantum yield (in ClCCl) came out at 0.5.

`CC1(C)Nc2cc3nc4cc(Cl)c(Cl)cc4nc3cc2N1`: the photoluminescence quantum yield (in CCO) came to 0.42.

For the compound `c1ccc2c(c1)-c1ccccc1C21c2ccccc2N(c2ccc(-c3nc([C@]45CC6CC(C[C@@H](C6)C4)C5)nc([C@]45C[C@H]6C[C@@H](C[C@H](C6)C4)C5)n3)cc2)c2ccccc21`, the photoluminescence quantum yield by setting is: (in CC1(C)c2ccccc2N(c2cccc(N3c4ccccc4C(C)(C)c4ccccc43)c2)c2ccccc21) 0.67; (in CC(C)(C)c1ccc(-n2c3ccc([Si](c4ccccc4)(c4ccccc4)c4ccccc4)cc3c3cc([Si](c4ccccc4)(c4ccccc4)c4ccccc4)ccc32)cc1) 0.76; (in Cc1cc(-n2c3ccccc3c3ccccc32)ccc1-c1ccc(-n2c3ccccc3c3ccccc32)cc1C) 0.36; (in O=P(c1ccccc1)(c1ccccc1)c1ccc([Si](c2ccccc2)(c2ccccc2)c2ccccc2)cc1) 0.84.

Consider `CCCN1/C(=C/C=C(/C=C/c2sc3ccccc3[n+]2CCC)c2ccc([N+](=O)[O-])cc2)Sc2ccccc21`, for which the photoluminescence quantum yield reads like this: (in CO) 0.05; (in CS(C)=O) 0.02; (in O) 0.02.

With `CC1=[N+]2C(=C(c3ccc(Br)cc3)c3ccc(C)n3[B-]2(F)F)C=C1c1cc2n(c1)[B-](F)(F)[N+]1=CC=CC1=C2c1c(C)cc(C)cc1C`, the photoluminescence quantum yield is, setting by setting: (in C1CCCCC1) 0.85; (in CCOC(C)=O) 0.21.

Take `C(#Cc1nc2ccccc2s1)c1ccc(N(c2ccccc2)c2ccccc2)cc1`: the photoluminescence quantum yield (in Cc1ccccc1) amounted to 0.62.

With `CCOC(=O)c1ccccc1-c1c2ccc(=[N+](CC)CC)cc-2oc2cc(N(CC)CC)ccc12`, the photoluminescence quantum yield reads like this: (in CC#N) 0.39; (in CCO) 0.69; (in CN(C)C=O) 0.39; (in O) 0.34.

The compound `CC(C)c1cccc(C(C)C)c1-n1c(=O)c2cc3nc(-c4ccccc4)c4cc5c(=O)n(-c6c(C(C)C)cccc6C(C)C)c(=O)c6cc7c(-c8ccccc8)nc8cc(c1=O)c2c1c3c4c(c56)c7c81` showed a photoluminescence quantum yield (in ClC(Cl)Cl) of 0.1.

Turning to `Cc1cc(C)c(B2c3cc(C(C)(C)C)cc4ccc5ccc6cc(C(C)(C)C)cc2c6c5c34)c(C)c1`, the photoluminescence quantum yield (in C1CCCCC1) turned out to be 0.79.

The compound `O=C1c2cccc3cc(C#CC#Cc4cc5c6c(cccc6c4)C(=O)N(c4ccccc4)C5=O)cc(c23)C(=O)N1c1ccccc1` displayed a photoluminescence quantum yield (in ClCCl) of 0.79.

Take `CCN(CC)c1ccc(-c2nc3c(c4c2-c2ccc(C#N)cc2CC4)-c2ccc(C#N)cc2CC3)cc1`: the photoluminescence quantum yield (in C1CCOC1) worked out at 0.74; the photoluminescence quantum yield (in CC#N) amounted to 0.339; the photoluminescence quantum yield (in CCCCCC) was found to be 0.209; the photoluminescence quantum yield (in CCOC(C)=O) worked out at 0.565; the photoluminescence quantum yield (in CO) amounted to 0.148; the photoluminescence quantum yield (in CS(C)=O) is 0.47. The compound also had a photoluminescence quantum yield (in Cc1ccccc1) of 0.427 and a photoluminescence quantum yield (in ClCCl) of 0.842.

For `Cc1cccc2ccccc12`, where the note is “in C1CCCCC1”, the photoluminescence quantum yield is 0.4.

Take `C(C1=[NH+]c2cccc3cccc1c23)=c1[nH]c2cccc3cccc1c32`: the photoluminescence quantum yield (in CO) worked out at 0.0103.

`[O-][n+]1c(-c2ccc(Br)cc2)cc(N2CCOCC2)nc1/C=C/c1ccccc1` gave a photoluminescence quantum yield (in ClCCl) of 0.15.

In the case of `CCCCCCCCCCCCCCCCCCOC(=O)/C=C/C1=CC2=C(c3c(C)cc(C)cc3C)c3cccn3[B-](F)(F)[N+]2=C1`, the photoluminescence quantum yield (in ClCCl) was 0.34.

Regarding `CCOC(=O)C1=CN(c2ccccc2)C=C(C(=O)OCC)C1`, the photoluminescence quantum yield came out at 0.2 (in C1CCOC1) and 0.16 (in CO).

Compound `CCCCN(CCCC)c1ccc2c(c1)C#CC#Cc1cc(C(F)(F)F)ccc1C#Cc1cc(c3cc1C#Cc1ccc(C(F)(F)F)cc1C#CC#Cc1cc(N(CCCC)CCCC)ccc1C#C3)C#C2` came in with a photoluminescence quantum yield (in ClCCl) of 0.23.
